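Tested at 5 concentrations; 48 h exposure; 96-well plates; endpoints linearly interpolated, else capped at highest concentration. GI50 = concentration required for 50% inhibition of growth. The concentration for full growth arrest is given as TGI.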
Tests used:
Assay in all cases: DTP human tumour cell line panel, 48 h
786-0 renal = test system: 786-0 renal
HT29 colon = test system: HT29 colon
PC-3 prostate = test system: PC-3 prostate
MDA-MB-231 breast = test system: MDA-MB-231 breast
RXF 393 renal = test system: RXF 393 renal
SK-OV-3 ovarian = test system: SK-OV-3 ovarian
NCI-H460 lung = test system: NCI-H460 lung
HCT-116 colon = test system: HCT-116 colon
SK-MEL-28 melanoma = test system: SK-MEL-28 melanoma
KM12 colon = test system: KM12 colon
SN12C renal = test system: SN12C renal
OVCAR-3 ovarian = test system: OVCAR-3 ovarian
M14 melanoma = test system: M14 melanoma
U251 CNS = test system: U251 CNS
NCI-H522 lung = test system: NCI-H522 lung
TK-10 renal = test system: TK-10 renal
MDA-MB-435 = test system: MDA-MB-435
SNB-75 CNS = test system: SNB-75 CNS
K-562 leukemia = test system: K-562 leukemia
SW-620 colon = test system: SW-620 colon
A498 renal = test system: A498 renal
CAKI-1 renal = test system: CAKI-1 renal
UO-31 renal = test system: UO-31 renal
SNB-19 CNS = test system: SNB-19 CNS
ACHN renal = test system: ACHN renal
UACC-62 melanoma = test system: UACC-62 melanoma
HL-60(TB) leukemia = test system: HL-60(TB) leukemia
IGROV1 ovarian = test system: IGROV1 ovarian
BT-549 breast = test system: BT-549 breast
UACC-257 melanoma = test system: UACC-257 melanoma
COLO 205 colon = test system: COLO 205 colon
HCC-2998 colon = test system: HCC-2998 colon
SF-295 CNS = test system: SF-295 CNS
MALME-3M melanoma = test system: MALME-3M melanoma
EKVX NSCLC = test system: EKVX NSCLC
MDA-MB-468 breast = test system: MDA-MB-468 breast
CCRF-CEM leukemia = test system: CCRF-CEM leukemia
SF-539 CNS = test system: SF-539 CNS
SK-MEL-2 melanoma = test system: SK-MEL-2 melanoma
DU-145 prostate = test system: DU-145 prostate
NCI-H226 lung = test system: NCI-H226 lung
OVCAR-5 ovarian = test system: OVCAR-5 ovarian
RPMI-8226 leukemia = test system: RPMI-8226 leukemia
SF-268 CNS = test system: SF-268 CNS
A549 NSCLC = test system: A549 NSCLC
OVCAR-4 ovarian = test system: OVCAR-4 ovarian
SR leukemia = test system: SR leukemia
NCI-H23 lung = test system: NCI-H23 lung
T-47D breast = test system: T-47D breast
LOX IMVI melanoma = test system: LOX IMVI melanoma
OVCAR-8 ovarian = test system: OVCAR-8 ovarian
HOP-92 NSCLC = test system: HOP-92 NSCLC
NCI/ADR-RES ovarian = test system: NCI/ADR-RES ovarian
MCF7 breast = test system: MCF7 breast
MOLT-4 leukemia = test system: MOLT-4 leukemia
HS 578T breast = test system: HS 578T breast
HOP-62 NSCLC = test system: HOP-62 NSCLC
HCT-15 colon = test system: HCT-15 colon
SK-MEL-5 melanoma = test system: SK-MEL-5 melanoma

SMILES: CCN1CCN(c2ccc(NC(=O)Nc3ccc4c(c3F)CCN4c3ccnc(C(=O)NC)c3)cc2C(F)(F)F)CC1
- GI50 (786-0 renal): 5.77 µM
- TGI (786-0 renal): 13.7 µM
- GI50 (HT29 colon): 3.06 µM
- TGI (HT29 colon): 9.53 µM
- GI50 (PC-3 prostate): 7.39 µM
- TGI (PC-3 prostate): 18.9 µM
- GI50 (MDA-MB-231 breast): 6.26 µM
- TGI (MDA-MB-231 breast): 11.5 µM
- GI50 (RXF 393 renal): 1.35 µM
- TGI (RXF 393 renal): 6.03 µM
- GI50 (SK-OV-3 ovarian): 5.84 µM
- TGI (SK-OV-3 ovarian): 11.6 µM
- GI50 (NCI-H460 lung): 6.04 µM
- TGI (NCI-H460 lung): 12.3 µM
- GI50 (HCT-116 colon): 6.98 µM
- TGI (HCT-116 colon): 16.5 µM
- GI50 (SK-MEL-28 melanoma): 5.65 µM
- TGI (SK-MEL-28 melanoma): 10.8 µM
- GI50 (KM12 colon): 0.341 µM
- TGI (KM12 colon): 6.62 µM
- GI50 (SN12C renal): 5.88 µM
- TGI (SN12C renal): 11.2 µM
- GI50 (OVCAR-3 ovarian): 6.02 µM
- TGI (OVCAR-3 ovarian): 11.6 µM
- GI50 (M14 melanoma): 6.8 µM
- TGI (M14 melanoma): 14.5 µM
- GI50 (U251 CNS): 4.8 µM
- TGI (U251 CNS): 9.97 µM
- GI50 (NCI-H522 lung): 7.1 µM
- TGI (NCI-H522 lung): 13.8 µM
- GI50 (TK-10 renal): 7.52 µM
- TGI (TK-10 renal): 13.1 µM
- GI50 (MDA-MB-435): 5.09 µM
- TGI (MDA-MB-435): 10.4 µM
- GI50 (SNB-75 CNS): 0.585 µM
- TGI (SNB-75 CNS): 6.84 µM
- GI50 (K-562 leukemia): 7.43 µM
- TGI (K-562 leukemia): > 37.3 µM
- GI50 (SW-620 colon): 5.07 µM
- TGI (SW-620 colon): 11.1 µM
- GI50 (A498 renal): 5.77 µM
- TGI (A498 renal): 10.9 µM
- GI50 (CAKI-1 renal): 6.56 µM
- TGI (CAKI-1 renal): 12 µM
- GI50 (UO-31 renal): 5.43 µM
- TGI (UO-31 renal): 10.3 µM
- GI50 (SNB-19 CNS): 5.95 µM
- TGI (SNB-19 CNS): 11.2 µM
- GI50 (ACHN renal): 5.9 µM
- TGI (ACHN renal): 10.9 µM
- GI50 (UACC-62 melanoma): 6.18 µM
- TGI (UACC-62 melanoma): 11.3 µM
- GI50 (HL-60(TB) leukemia): 6.65 µM
- TGI (HL-60(TB) leukemia): 15.7 µM
- GI50 (IGROV1 ovarian): 6.66 µM
- TGI (IGROV1 ovarian): 12.2 µM
- GI50 (BT-549 breast): 6.92 µM
- TGI (BT-549 breast): 13.4 µM
- GI50 (UACC-257 melanoma): 6.27 µM
- TGI (UACC-257 melanoma): 12 µM
- GI50 (COLO 205 colon): 10.7 µM
- TGI (COLO 205 colon): > 37.3 µM
- GI50 (HCC-2998 colon): 6.44 µM
- TGI (HCC-2998 colon): 12 µM
- GI50 (SF-295 CNS): 3.52 µM
- TGI (SF-295 CNS): 8.23 µM
- GI50 (MALME-3M melanoma): 5.49 µM
- TGI (MALME-3M melanoma): 10.5 µM
- GI50 (EKVX NSCLC): 6.71 µM
- TGI (EKVX NSCLC): 12.6 µM
- GI50 (MDA-MB-468 breast): 6.36 µM
- TGI (MDA-MB-468 breast): 12.7 µM
- GI50 (CCRF-CEM leukemia): 6.25 µM
- TGI (CCRF-CEM leukemia): 24.4 µM
- GI50 (SF-539 CNS): 2.35 µM
- TGI (SF-539 CNS): 7.24 µM
- GI50 (SK-MEL-2 melanoma): > 37.3 µM
- TGI (SK-MEL-2 melanoma): > 37.3 µM
- GI50 (DU-145 prostate): 6.45 µM
- TGI (DU-145 prostate): 11.9 µM
- GI50 (NCI-H226 lung): 6.58 µM
- TGI (NCI-H226 lung): 14.7 µM
- GI50 (OVCAR-5 ovarian): 5.82 µM
- TGI (OVCAR-5 ovarian): 10.8 µM
- GI50 (RPMI-8226 leukemia): 7.73 µM
- TGI (RPMI-8226 leukemia): 30.9 µM
- GI50 (SF-268 CNS): 6.13 µM
- TGI (SF-268 CNS): 14 µM
- GI50 (A549 NSCLC): 6.75 µM
- TGI (A549 NSCLC): 13.5 µM
- GI50 (OVCAR-4 ovarian): 6.3 µM
- TGI (OVCAR-4 ovarian): 13.7 µM
- GI50 (SR leukemia): 5.44 µM
- TGI (SR leukemia): 18.7 µM
- GI50 (NCI-H23 lung): 5.97 µM
- TGI (NCI-H23 lung): 12 µM
- GI50 (T-47D breast): > 37.3 µM
- TGI (T-47D breast): > 37.3 µM
- GI50 (LOX IMVI melanoma): 5.54 µM
- TGI (LOX IMVI melanoma): 10.7 µM
- GI50 (OVCAR-8 ovarian): 7.08 µM
- TGI (OVCAR-8 ovarian): 15.6 µM
- GI50 (HOP-92 NSCLC): 5.87 µM
- TGI (HOP-92 NSCLC): 12.5 µM
- GI50 (NCI/ADR-RES ovarian): 6.87 µM
- TGI (NCI/ADR-RES ovarian): 16 µM
- GI50 (MCF7 breast): 5.93 µM
- TGI (MCF7 breast): 13.1 µM
- GI50 (MOLT-4 leukemia): 2.09 µM
- TGI (MOLT-4 leukemia): 16.3 µM
- GI50 (HS 578T breast): 4.9 µM
- TGI (HS 578T breast): 13.2 µM
- GI50 (HOP-62 NSCLC): 5.34 µM
- TGI (HOP-62 NSCLC): 10.9 µM
- GI50 (HCT-15 colon): 5.54 µM
- TGI (HCT-15 colon): 12.1 µM
- GI50 (SK-MEL-5 melanoma): 6.1 µM
- TGI (SK-MEL-5 melanoma): 11.3 µM

Source: PubChem BioAssay (NCI)
